From patent US20260109712A1, “RIFAMYCINS FOR NONTUBERCULOUS MYCOBACTERIA” (priority 2022, published 2026)

Assays:
Δarr M. abscessus = test: MIC assay, isogenic arr-deleted strain; type: cell-based, Mycobacterium abscessus; details: Table 10
How it was run: (§1)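 Two-fold, ten-point dilutions in 7H9 with 2% DMSO; mid-log culture diluted to OD600=0.1 (1×10^7 CFU/mL). Incubated 3 days at 37 °C, shaking 110 RPM; growth = Day 3 minus Day 0 OD600, expressed as percentage of drug-free growth and plotted against concentration. Two biological replicates.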

[1] = Plasma protein binding assay (rapid equilibrium dialysis); type: in vitro ADME
Method: DMSO stocks were spiked into plasma to a concentration of 10,000 ng/mL. 200 μL of spiked plasma was pipetted into the sample chamber of the rapid equilibrium dialysis (RED) cartridge. 350 μL of PBS was added to the adjacent cartridge. The plate containing the RED was sealed and incubated at 37° C. on the thermomixer at 300 RPM for 4 h. After incubation, 50 μL aliquots of plasma were removed and added to 50 μL of blank plasma in a deep well plate (1:1). Similarly, 50 μL aliquots of PBS were removed and added to 50 μL of blank plasma. This created an identical matrix between buffer and non-buffer samples. Samples were processed and quantified as specified in the LC-MS/MS analytical method.

M. abscessus ATCC 19977 = test: MIC assay in 96-well plate format, wild-type strain; type: cell-based, Mycobacterium abscessus; details: Table 10
How it was run: as §1

[2] = Mouse pharmacokinetics studies; type: in vivo, CD-1 mice; details: for ƒAUC/MIC: p.o. doses of 10 mg/kg
Method: Blood was captured in CB300 blood collection tubes containing K2EDTA and stored on ice. Plasma was recovered after centrifugation and stored at −80° C. until analyzed by high pressure liquid chromatography coupled to tandem mass spectrometry (LC-MS/MS). Pharmacokinetic parameters were calculated using non-compartmental pharmacokinetic analysis. […] Extracts were vortexed for 5 minutes and centrifuged at 4000 RPM for 5 minutes. 75 μL of supernatant was transferred for LC-MS/MS analysis and diluted with 75 μL of Milli-Q deionized water. Rifabutin was purchased from Carbosynth. C25-desacetyl rifabutin and rifabutin-d7 were purchased from Toronto Research Chemical. Verapamil was purchased from Sigma-Aldrich. […] Multiple-reaction monitoring of parent/daughter transitions in electrospray positive-ionization mode was used to quantify all analytes. […] Data processing was performed using Analyst software (version 1.6.2; Applied Biosystems Sciex).

[3] = AUC25-O-desacetyl RFB/AUCcompound × 100%, n.d. = undetectable

SMILES	MICΔorr (Δarr M. abscessus) [µM]	plasma unbound fraction ([1]; Table 10) [%]	MICWT (M. abscessus ATCC 19977) [µM]	other results
CO[C@H]1/C=C/O[C@@]2(C)Oc3c(C)c(O)c4c(c3C2=O)C2=NC3(CCN(CC(C)C)CC3)NC2=C(NC(=O)/C(C)=C/C=C/[C@H](C)[C@H](O)[C@@H](C)[C@@H](O)[C@@H](C)[C@H](OC(=O)Nc2cccnn2)[C@@H]1C)C4=O [UMN64]	0.034	4.15	0.032	–
CO[C@H]1/C=C/O[C@@]2(C)Oc3c(C)c(O)c4c(c3C2=O)C2=NC3(CCN(CC(C)C)CC3)NC2=C(NC(=O)/C(C)=C/C=C/[C@H](C)[C@H](O)[C@@H](C)[C@@H](O)[C@@H](C)[C@H](OC(=O)Nc2cccnc2)[C@@H]1C)C4=O [UMN67]	0.025	1.75	0.025	–
COC1C=COC2(C)Oc3c(C)c(O)c4c(c3C2=O)C2=NC3(CCN(CC(C)C)CC3)NC2=C(NC(=O)C(C)=CC=CC(C)C(O)C(C)C(O)C(C)C(OC(=O)N2CCOC(C)C2)C1C)C4=O (stereo not shown) [UMN68]	0.033	2.40	0.061	–
COC1C=COC2(C)Oc3c(C)c(O)c4c(c3C2=O)C2=NC3(CCN(CC(C)C)CC3)NC2=C(NC(=O)C(C)=CC=CC(C)C(O)C(C)C(O)C(C)C(OC(=O)N2CCOC(C)C2)C1C)C4=O (stereo not shown) [UMN70]	0.026	0.56	0.08	–
CO[C@H]1/C=C/O[C@@]2(C)Oc3c(C)c(O)c4c(c3C2=O)C2=NC3(CCN(CC(C)C)CC3)NC2=C(NC(=O)/C(C)=C/C=C/[C@H](C)[C@H](O)[C@@H](C)[C@@H](O)[C@@H](C)[C@H](OC(=O)N2CCOC(C)(C)C2)[C@@H]1C)C4=O [UMN71]	0.032	0.39	0.076	–
CCOC(=O)C1CN(C(=O)O[C@H]2[C@H](C)[C@H](O)[C@H](C)[C@@H](O)[C@@H](C)/C=C/C=C(\C)C(=O)NC3=C4NC5(CCN(CC(C)C)CC5)N=C4c4c(c(O)c(C)c5c4C(=O)[C@@](C)(O/C=C/[C@H](OC)[C@H]2C)O5)C3=O)CCO1 (stereo partly shown) [UMN72]	0.040	0.75	0.082	–
CCN1CCN(C(=O)O[C@H]2[C@H](C)[C@H](O)[C@H](C)[C@@H](O)[C@@H](C)/C=C/C=C(\C)C(=O)NC3=C4NC5(CCN(CC(C)C)CC5)N=C4c4c(c(O)c(C)c5c4C(=O)[C@@](C)(O/C=C/[C@H](OC)[C@H]2C)O5)C3=O)CC1 [UMN73]	0.052	0.65	0.1	–
CO[C@H]1/C=C/O[C@@]2(C)Oc3c(C)c(O)c4c(c3C2=O)C2=NC3(CCN(CC(C)C)CC3)NC2=C(NC(=O)/C(C)=C/C=C/[C@H](C)[C@H](O)[C@@H](C)[C@@H](O)[C@@H](C)[C@H](OC(=O)NCc2cn(Cc3ccccc3)nn2)[C@@H]1C)C4=O [UMN85]	0.025	0.30	0.027	–
CO[C@H]1/C=C/O[C@@]2(C)Oc3c(C)c(O)c4c(c3C2=O)C2=NC3(CCN(CC(C)C)CC3)NC2=C(NC(=O)/C(C)=C/C=C/[C@H](C)[C@H](O)[C@@H](C)[C@@H](O)[C@@H](C)[C@H](OC(=O)c2ccccc2)[C@@H]1C)C4=O [drawing 217]	–	–	–	C-25 deacylation i.v. [2, 3]: 0.03%; C-25 deacylation p.o. [2, 3]: 0.008%; CL ([2]; Table 12): 2.4 mL/min/kg; Vd ([2]; Table 12): 2.9 L/kg; t1/2 ([2]; Table 12): 13.8 h; ƒAUC/MIC ([2]; Table 12): 0.08; plasma unbound fraction ([1]; Table 12): 0.03%
CO[C@H]1/C=C/O[C@@]2(C)Oc3c(C)c(O)c4c(c3C2=O)C2=NC3(CCN(CC(C)C)CC3)NC2=C(NC(=O)/C(C)=C/C=C/[C@H](C)[C@H](O)[C@@H](C)[C@@H](O)[C@@H](C)[C@H](OC(=O)c2cccnc2)[C@@H]1C)C4=O [drawing 222]	–	–	–	CL ([2]; Table 12): 3.0 mL/min/kg; Vd ([2]; Table 12): 1.6 L/kg; ƒAUC/MIC ([2]; Table 12): 28.2
